Measured values as given in patent US20070225213A1, “Nucleic acid carriers for delivery of therapeutic agents” (priority 2006, published 2007).

System: MCF7
Assay: Cell uptake by MTN fluorescence EX620/EM680 (Examples 10 and 13, EX051605)
Format: cell-based, human
Settings: 10% w/w loading in DNA
Procedure: Materials: HSGDNA, MTN, ODNAS1116 (phosphorothioated, single stranded DNA, and Beta-cyclodextrin polymer (BCD-SBE, KKBIOMED Inc.) were previously prepared in water at 10 mg/ml, 1 mg/ml, 0.95 mg/ml, and 10 mg/ml respectively.
Procedure: For NAC-MTN, combined 37 ul HSGDNA (herring genomic DNA, Promega Inc.), 1426 ul HBSS( Hank's buffered saline, Sigma-Aldrich), with 37 ul of MTN, followed by 1500 ul 2× DMEM media to give 3 ml final and 24 uM (24 micro-molar) MTN and 10% w/w drug loading of MTN. For NAC-MTN (AR1505) combined 62 ul of HSDNA (deg. herring sperm DNA, Sigma) with 2377 ul HBSS, 61.7 ul MTN, 2500 ul 2× media to give 5 ml final and 24 uM MTN and 10% w/w drug loading of MTN to HSDNA. […]
Plate#1 Media was aspirated and cells treated with 100 ul of either NAC-MTN, CD-MTN, or MTN at 24 uM MTN final or 12.3 ug/ml MTN in all samples. Samples containing MTN were incubated 4 hours, removed, and fluorescence taken at EX620/EM680. […]
Samples were incubated 4 hours, removed, and MTN fluorescence taken at EX620/EM680. […] Average MTN fluorescence was averaged from 6 wells. For each cell type, MTN fluorescence was highest in MTN treated cells, followed by CD-MTN, and lowest in NAC-MTN. […]
PLATE#2: Dispensed 50 ul from source plate into plate #2 to give 150 ul final vol 4.1 ug/ml, 8 uMfinal per well, pre-read fluorescence w samples (bkgd) incubated 5 hr, removed, replaced w/ media, read fluor. […]

## O=C1c2c(O)ccc(O)c2C(=O)c2c(NCCNCCO)ccc(NCCNCCO)c21 [MTN, mitoxantrone]
Plate#1, 24 uM MTN, 4 hours
  % reduction in fluorescence relative to MTN alone (MTN = 0%): 0%
Plate#2, 8 uM MTN
  % reduction in fluorescence relative to MTN alone (MTN = 0%): 0%
